Literature values, collected in patent US11197842B2 (BIOGEN MA INC., priority 2014, dated 2021).
Structures can show the parent of a compound that is named as a salt.

Conditions: species not stated

Structure (SMILES): COC(=O)/C=C/C(=O)O [MMF, monomethyl fumarate]
- half-life of MMF: approximately 1 hour
